Source: patent US20250000874A1, “BACTERIAL METABOLITES AND THEIR USE IN REDUCING INFLAMMATION” (LOYOLA UNIVERSITY OF CHICAGO, priority 2023, published 2025)

Legend:
NF-kB = test: MQ on translocation of NF-kB (p65) to the nucleus in HCECs, western blot; assay type: cell-based, human; conditions: MQ 50 μM overnight, FLA 100 ng/ml 3 hours
Protocol: Materials and Methods: Human corneal epithelial cells were grown in culture. Cells were then plated in DMEM. The cells cultures were then kept at 37° C. with 5% CO2. Once ready, HCECs were then incubated with MQ at a concentration of 50 uM overnight. […] Samples were treated for 3 hours and then samples were collected. Nuclear and cytoplasmic fractions were obtained using 0.1% NP-40 buffer. Cells were pelleted and the supernatant was discarded. Cells were then treated with 25 μl of NP-40 lysis buffer. Upon addition of the buffer cells were centrifuged for 10 minutes at 3000 rpm at 4° C. The supernatant was collected which is the cytoplasmic fraction and the remaining pellet was the nuclear fraction. The pellet was then washed three times to remove any remaining cytoplasmic fraction.
Both fractions were then treated with 2x SDS loading buffer and the protein was denatured at 100° C. and placed on ice. Proteins were run on a gel at […] until the dye front neared the bottom of the gel. Protein was then dry transferred to a membrane. The membrane was blocked in 5% blocking buffer overnight. The following day the membrane was washed three times with PBS-T and anti-mouse p65-NF-kB rabbit polyclonal antibody was added. […]
The inhibitory effects on the translocation of NF-kB from the cytoplasm to the nucleus following stimulation with FLA was also assessed. […]

THP-1 cells = test: NC on TNFα production by THP-1s in response to TLR agonists (Example 7); assay type: cell-based, human
Protocol: FIG. 32. NC Reduces TNFα Response to Toll 3 Agonist. Macrophages were cultured at a uniform density and allowed to adhere (in the case of BMDMs) or differentiate with PMA (in the case of THP-1s). macrophages were then incubated overnight in NC at a concentration of 50 uM at 37° C. The following day, the BMDMs were stimulated with P(I:C) at 50 ug/mL, 100 ug/mL, or 200 ug/mL for four hours and the THP-1s were stimulated at 200 […]. Supernatants were collected and TNFα concentrations were determined via ELISA.
FIG. 34. TNFα production from THP-1 stimulation. Thp-1s plated at uniform density and incubated in PMA to differentiate and treated with NC overnight. The following day, cells were then treated with FSL at a concentration of 20 ng/ml and 50 ng/ml. After 4 hours, supernatant was collected and the concentration of TNFα was determined via ELISA.
Bone marrow derived macrophages were collected from adult mice (6-8 weeks old). Femurs were obtained and cut with scissors. The connecting muscles were removed and the bones were flushed with PBS. PBS was collected and cells were counted and adjusted to the desired concentrations. Cells were then plated in DMEM supplemented with Macrophage Colony Stimulating Factor (M-CSF) at 10 ng/ml. […] After 7 days the cells were ready for use. […]
Once ready, macrophages were then incubated with NC at a concentration of 50 uM overnight. […] Samples were treated for 4 hours and then Supernatant was then collected and the concentration of TNFα was then determined via the commercially available ELISA MAX Deluxe kit (Biolegend), with measurements reported in pg/mL.
To investigate the effects NC, macrophages were stimulated in vitro with various TLR agonists, and the production of cytokines was measured via ELISA. […] After 4 hours, supernatant was collected and the concentration of TNFα was determined via ELISA.
Further investigation of NC's impact on TLR signaling involved treating BMDMs with the TLR 4 agonist LPS. […] After 4 hours supernatant was collected and concentration of TNFα was measured via ELISA. […]

[1] = tested on: phosphorylated NFκB (ser536); test: NC on phospho-NFκB (ser536) levels in stimulated Raw 264.7 macrophages; assay type: cell-based, mouse
Protocol: FIG. 31. Compound NC on phospho-NFκB (ser536) levels in stimulated macrophages. Raw 264.7 macrophages were incubated with 50 μM of NC for 18 hours prior to stimulation with LPS or Poly I:C. Whole cell lysates were collected after 2 hours and the level of phosphorylated NFκB (Phosphoserine 536) was quantified for endpoint absorbance at […] and normalized to absorbance of untreated, unstimulated cells. Mean and p values were computed using R base and dplyr packages using normalized values.
TRIF can participate in TNFα signaling through two distinct mechanisms. Firstly, TRIF can signal NFκB through TRAF6 to increase TNFα transcription. Secondly, TRIF activation can enhance the translation of TNFα mRNA through prolonged MK-2 activation. To determine whether NC reduces TNFα release by blocking TNFα transcription or translation, we collected cell lysates and quantified the levels of phosphorylated NFκB (ser536). Lysates of Raw 264.7 cells treated with NC prior to stimulation with LPS or Poly I:C contained more phosphorylated NFκB (ser536) than untreated cells (FIG. 31). There was no difference in phosphorylated NFκB (ser536) in unstimulated cells treated with NC.

Compound | translocation of NF-kB to the nucleus (NF-kB) | production and secretion of TNFα (THP-1 cells; NC 50 μM overnight, Poly (I:C) 200 mg/ml or 400 mg/mL, 4 hours) | production of TNFα (THP-1 cells; NC alone, 50 μM overnight) | TNFα production in response to TLR 2/6 agonist FSL-1 (THP-1 cells; NC overnight, FSL 20 ng/ml and 50 ng/ml, 4 hours) | phosphorylated NFκB (ser536) level ([1]; 50 μM NC 18 hours, LPS, lysates after 2 hours) | phosphorylated NFκB (ser536) level ([1]; 50 μM NC 18 hours, Poly I:C, lysates after 2 hours) | phosphorylated NFκB (ser536) level ([1]; NC, unstimulated cells)
Prednicarbate [MQ] | inhibited | – | – | – | – | – | –
CCCCCCCCCCCCCCCC(=O)N[C@@H](C(=O)O)[C@H](C)O [NC, N-Palmitoyl-D-Threonine] | – | reduced | not found to increase | exhibited inhibitory effects | more and significantly decreases | more and significantly decreases | no difference
